Laboratory results: US7303740B2, “Methods for the diagnosis and treatment of breast cancer” (Albert Einstein College of Medicine of Yeshiva University, priority 2000, dated 2007)
Each block holds one molecule with its values, some of them ahead of it.

Experiments:
mgNIS [1] = assay: Immunoblot analysis of mgNIS in MG from ovariectomized nubile mice treated with hormones; format: in vivo; conditions: for mgNIS expression in mammary tissue (immunoblot): three consecutive days
Protocol: FIG. 4. Immunoblot analysis of MG from ovariectomized nubile mice treated with various hormones. Membrane fractions isolated from MG of nubile mice were either sham treated with PBS (lane 1) or treated for three consecutive days with: progesterone (1 I.U.) (lane 2); 17-β-estradiol (1 μg) (lane 3); 17-β-estradiol and progesterone (1 I.U.) (lane 4); oxytocin (1 I.U.) (lane 5); oxytocin and 17-β-estradiol (lane 6); prolactin (10 I.U.) (lane 7); oxytocin, prolactin, and 17-β-estradiol (lane 8); and progesterone together with oxytocin, prolactin, and 17-β-estradiol (lane 9). Isolated membrane fractions were electrophoresed and electrotransferred onto nitrocellulose, followed by immunoblot analysis with anti-NIS Ab.
Oxytocin (α-hypophamine), prolactin, progesterone (4-pregnene-3,20-dione), and 17-β-estradiol (1,3,5[10]-estratriene-3,17-β-diol) were purchased from Sigma, St. Louis, Mo. Either ovariectomized or surgically unmodified 8- to 10-week-old CD1 (ICR) IBR mice (Charles River Laboratories, Wilmington, Mass.) were treated once a day with subcutaneous injections of 1 I.U. of oxytocin, 10 I.U. of prolactin, 1 μg 17-β-estradiol, or 1 I.U. of progesterone (intraperitoneally) for three consecutive days, either individually or in the indicated combination. A final injection was done on the fourth day; two hours later, mammary glands were removed for analysis. Oxytocin and prolactin were dissolved in sterile distilled water, 17-β-estradiol was dissolved in 90% alcohol, and progesterone was dissolved in sesame oil (Sigma, St. Louis, Mo.). Except for progesterone, indicated doses of hormones were injected after being taken in 200 μl sterile PBS solution. Progesterone (final concentration 10 mg/ml) was injected into 100 μl of sesame oil. Control animals which were sham treated with sesame oil were systematically included in experiments when progesterone was administered. At least three identically-treated animals were analyzed in each case.
Sprague-Dawley female rats (over 8 weeks old) at different physiological stages, and hormonally-treated CD1 (ICR) BR female mice, were sacrificed in a CO2 chamber before excision of thoracic, abdominal, and inguinal MG. Organs, which were removed from mice or rats were blended with a polytron homogenizer (Brinkmann Instruments, Westbury, N.Y.) for 1 min, and homogenized with a stirrer-type glass-teflon homogenizer (Caframo-Wiarton, Ontario, Canada) (Levy et al., 1997). Membrane fractions were prepared in the presence of protease inhibitors, as described above (Kaminsky et al., 1994). SDS-PAGE electrophoresis and electroblotting to nitrocellulose were performed as described in Levy et al. (1997). All samples were diluted 1:2 with loading buffer (Harlow and Lane, 1988) and heated at 37° C. for 30 min prior to electrophoresis. […]

mgNIS [2] = assay: mgNIS expression (immunoblot) and 125I- transport in MG of hormonally treated intact nubile mice; format: in vivo; conditions: intact nubile animals
Protocol: (§1) FIG. 3. In vivo effect of oxytocin on functional expression of mgNIS in nubile mice. (A) Radioiodide transport in MG of oxytocin-treated nubile mice. Seven- to eight-week-old female mice were treated subcutaneously with phosphate buffered saline solution (PBS), 10 I.U. of prolactin (PRL), 1 I.U. of oxytocin (OXY), or prolactin and oxytocin (PRL+OXY) for three days. Then, 1 μCi of ^125I^− was injected intraperitoneally. […] (B) Immunoblot analysis of MG from hormonally-treated mice. […] Isolated membrane fractions were electrophoresed, electrotransferred onto nitrocellulose, and analyzed by immunoblots using anti-NIS Ab. […] Perchlorate-inhibited accumulation of ^99mTcO4^− was detected in stomach and MG of OXY-treated animals. (D) Quantification of ^99mTcO4^− accumulation in various organs from OXY- or PBS-treated mice. Tracer accumulation was monitored using image analysis software (ImageQuant, Macintosh). […] Counts were divided by the weight of the organs (cpm/mg tissue), and standardized by dividing them by cpm detected in the blood (cpm/mg blood) of each animal. ^99mTcO4^− accumulation in the organs from: PBS-treated animals (open bars); OXY-treated animals (dotted bars); and OXY-treated animals after ^99mTcO4^−+perchlorate injection (dark bars). […]

mgNIS [3] = target: T1, mgNIS (Mus musculus, UniProt Q99PN0); assay: Ex vivo scintigraphic imaging of 99mTcO4- accumulation in organs of oxytocin-treated nubile mice; design: Membrane fractions isolated from MG of nubile female mice; from tissue; host or cells: CD1 (ICR) mice (intact, ovariectomized, gestating) and MMTV-ras / MMTV-neu transgenic mice: mammary gland, mammary adenocarcinoma, stomach; conditions: organs removed 30 min after tracer
T1 sequence (Q99PN0 1-618): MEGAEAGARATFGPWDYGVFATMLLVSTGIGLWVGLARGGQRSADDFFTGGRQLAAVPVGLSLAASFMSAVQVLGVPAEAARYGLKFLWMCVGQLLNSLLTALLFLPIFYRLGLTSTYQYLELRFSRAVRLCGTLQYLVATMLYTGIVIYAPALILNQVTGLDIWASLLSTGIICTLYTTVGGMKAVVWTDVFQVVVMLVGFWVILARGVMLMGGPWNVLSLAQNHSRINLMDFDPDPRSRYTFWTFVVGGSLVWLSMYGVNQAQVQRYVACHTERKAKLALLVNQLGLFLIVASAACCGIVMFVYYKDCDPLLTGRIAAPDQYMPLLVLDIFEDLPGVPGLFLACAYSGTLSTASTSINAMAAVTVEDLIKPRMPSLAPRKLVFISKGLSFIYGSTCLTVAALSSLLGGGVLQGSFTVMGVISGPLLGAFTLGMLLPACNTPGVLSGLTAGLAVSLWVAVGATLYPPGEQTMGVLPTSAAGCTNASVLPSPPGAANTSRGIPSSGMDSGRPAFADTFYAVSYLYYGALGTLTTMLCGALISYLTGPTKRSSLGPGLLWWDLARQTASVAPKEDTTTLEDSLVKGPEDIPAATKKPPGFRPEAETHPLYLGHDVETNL
Protocol: as §1

Molecule: C[C@]12CC[C@@H]3c4ccc(O)cc4CC[C@H]3[C@@H]1CC[C@@H]2O [17-β-estradiol, 1,3,5[10]-estratriene-3,17-β-diol]
mgNIS expression in mammary tissue (immunoblot) (mgNIS [1]): clearly discernible increase

perchlorate-inhibited 99mTcO4- accumulation in MGs versus sham-treated mice (mgNIS [3]): significantly higher
Molecule: CC[C@H](C)[C@@H]1NC(=O)[C@H](Cc2ccc(O)cc2)NC(=O)[C@@H](N)CSSC[C@@H](C(=O)N2CCC[C@H]2C(=O)N[C@@H](CC(C)C)C(=O)NCC(N)=O)NC(=O)[C@H](CC(N)=O)NC(=O)[C@H](CCC(N)=O)NC1=O [oxytocin, α-hypophamine]
mgNIS expression in MG (immunoblot), leading to 125I- transport (mgNIS [2]; 1 I.U. s.c. for three days): induced mgNIS expression
mgNIS expression in mammary tissue (immunoblot) (mgNIS [1]): did not cause an increase

Molecule: CC(=O)[C@H]1CC[C@H]2[C@@H]3CCC4=CC(=O)CC[C@]4(C)[C@H]3CC[C@]12C [progesterone, 4-pregnene-3,20-dione]
effect on 17-β-estradiol enhancement of mgNIS expression (mgNIS [1]): did not interfere
mgNIS expression when added to the 17-β-estradiol/oxytocin/prolactin combination (mgNIS [1]): significantly decreased

B1: prolactin: a glycoprotein released from the anterior pituitary (protein, UniProt P01236 29-227, looked up)
Prolactin: LPICPGGAARCQVTLRDLFDRAVVLSHYIHNLSSEMFSEFDKRYTHGRGFITKAINSCHTSSLATPEDKEQAQQMNQKDFLSLIVSILRSWNEPLYHLVTEVRGMQEAPEAILSKAVEIEEQTKRLLEGMELIVSQVHPETKENEIYPVWSGLPSLQMADEESRLSAYYNLLHCLRRDSHKIDNYLKLLKCRIIHNNNC
effect on upregulation of mgNIS by oxytocin (mgNIS [2]; 10 I.U. prolactin with 1 I.U. oxytocin): antagonized
